In the NIST ThermoML archive (doi:10.1016/j.jct.2016.06.016):
Numbers after ± are expanded uncertainties.

Test: xn = mol fraction of the nth substance listed
Conditions: 100 kPa, Liquid; for viscosity: Concentric cylinders viscometry; for mass density: Vibrating tube method

CCOC(=O)CCC(=O)OCC [diethyl butanedioate] + CCCO
Conditions	mass density [kg/m3]	viscosity [mPa·s]
288.15 K, x1 = 0.1	854.4 ± 0.81	2.13 ± 0.019
288.15 K, x1 = 0.2	891.88 ± 0.81	2.009 ± 0.018
288.15 K, x1 = 0.2999	922.67 ± 0.81	2.025 ± 0.018
288.15 K, x1 = 0.3998	948.47 ± 0.81	2.105 ± 0.019
288.15 K, x1 = 0.4999	970.46 ± 0.81	2.214 ± 0.02
288.15 K, x1 = 0.6001	989.43 ± 0.81	2.341 ± 0.022
288.15 K, x1 = 0.7001	1005.92 ± 0.82	2.496 ± 0.023
288.15 K, x1 = 0.8002	1020.45 ± 0.82	2.69 ± 0.025
288.15 K, x1 = 0.8997	1033.27 ± 0.83	2.926 ± 0.028
288.15 K, x1 = 1	1044.83 ± 0.84	3.195 ± 0.03
293.15 K, x1 = 0.1	850.08 ± 0.81	1.889 ± 0.017
293.15 K, x1 = 0.2	887.33 ± 0.81	1.788 ± 0.016
293.15 K, x1 = 0.2999	917.95 ± 0.81	1.804 ± 0.016
293.15 K, x1 = 0.3998	943.61 ± 0.81	1.875 ± 0.017
293.15 K, x1 = 0.4999	965.5 ± 0.81	1.971 ± 0.018
293.15 K, x1 = 0.6001	984.4 ± 0.81	2.082 ± 0.019
293.15 K, x1 = 0.7001	1000.83 ± 0.82	2.215 ± 0.021
293.15 K, x1 = 0.8002	1015.31 ± 0.82	2.379 ± 0.022
293.15 K, x1 = 0.8997	1028.1 ± 0.83	2.578 ± 0.024
293.15 K, x1 = 1	1039.63 ± 0.83	2.807 ± 0.027
298.15 K, x1 = 0.1	845.75 ± 0.81	1.69 ± 0.015
298.15 K, x1 = 0.2	882.77 ± 0.81	1.608 ± 0.015
298.15 K, x1 = 0.2999	913.21 ± 0.81	1.622 ± 0.015
298.15 K, x1 = 0.3998	938.75 ± 0.81	1.684 ± 0.016
298.15 K, x1 = 0.4999	960.54 ± 0.81	1.767 ± 0.016
298.15 K, x1 = 0.6001	979.36 ± 0.81	1.866 ± 0.017
298.15 K, x1 = 0.7001	995.74 ± 0.82	1.983 ± 0.019
298.15 K, x1 = 0.8002	1010.18 ± 0.82	2.126 ± 0.02
298.15 K, x1 = 0.8997	1022.93 ± 0.83	2.297 ± 0.022
298.15 K, x1 = 1	1034.44 ± 0.83	2.491 ± 0.024
303.15 K, x1 = 0.1	841.4 ± 0.81	1.519 ± 0.014
303.15 K, x1 = 0.2	878.18 ± 0.81	1.452 ± 0.013
303.15 K, x1 = 0.2999	908.46 ± 0.81	1.465 ± 0.014
303.15 K, x1 = 0.3998	933.87 ± 0.81	1.518 ± 0.014
303.15 K, x1 = 0.4999	955.57 ± 0.81	1.593 ± 0.015
303.15 K, x1 = 0.6001	974.32 ± 0.81	1.682 ± 0.016
303.15 K, x1 = 0.7001	990.64 ± 0.82	1.787 ± 0.017
303.15 K, x1 = 0.8002	1005.04 ± 0.82	1.912 ± 0.018
303.15 K, x1 = 0.8997	1017.76 ± 0.83	2.061 ± 0.02
303.15 K, x1 = 1	1029.25 ± 0.83	2.229 ± 0.022
308.15 K, x1 = 0.1	837.02 ± 0.81	1.371 ± 0.013
308.15 K, x1 = 0.2	873.57 ± 0.81	1.316 ± 0.012
308.15 K, x1 = 0.2999	903.69 ± 0.81	1.328 ± 0.013
308.15 K, x1 = 0.3998	928.98 ± 0.81	1.376 ± 0.013
308.15 K, x1 = 0.4999	950.59 ± 0.81	1.444 ± 0.014
308.15 K, x1 = 0.6001	969.27 ± 0.81	1.524 ± 0.015
308.15 K, x1 = 0.7001	985.54 ± 0.82	1.619 ± 0.016
308.15 K, x1 = 0.8002	999.9 ± 0.82	1.731 ± 0.017
308.15 K, x1 = 0.8997	1012.6 ± 0.83	1.861 ± 0.018
308.15 K, x1 = 1	1024.08 ± 0.83	2.008 ± 0.02
313.15 K, x1 = 0.1	832.6 ± 0.81	1.248 ± 0.012
313.15 K, x1 = 0.2	868.94 ± 0.81	1.209 ± 0.011
313.15 K, x1 = 0.2999	898.89 ± 0.81	1.222 ± 0.012
313.15 K, x1 = 0.3998	924.07 ± 0.81	1.265 ± 0.012
313.15 K, x1 = 0.4999	945.59 ± 0.81	1.325 ± 0.013
313.15 K, x1 = 0.6001	964.21 ± 0.81	1.398 ± 0.013
313.15 K, x1 = 0.7001	980.44 ± 0.82	1.484 ± 0.014
313.15 K, x1 = 0.8002	994.77 ± 0.82	1.586 ± 0.015
313.15 K, x1 = 0.8997	1007.44 ± 0.82	1.7 ± 0.017
313.15 K, x1 = 1	1018.9 ± 0.83	1.821 ± 0.018
318.15 K, x1 = 0.1	828.14 ± 0.81	1.128 ± 0.011
318.15 K, x1 = 0.2	864.27 ± 0.81	1.096 ± 0.011
318.15 K, x1 = 0.2999	894.07 ± 0.81	1.11 ± 0.011
318.15 K, x1 = 0.3998	919.14 ± 0.81	1.15 ± 0.011
318.15 K, x1 = 0.4999	940.58 ± 0.81	1.206 ± 0.012
318.15 K, x1 = 0.6001	959.14 ± 0.81	1.274 ± 0.013
318.15 K, x1 = 0.7001	975.33 ± 0.82	1.352 ± 0.013
318.15 K, x1 = 0.8002	989.62 ± 0.82	1.443 ± 0.014
318.15 K, x1 = 0.8997	1002.28 ± 0.82	1.545 ± 0.015
318.15 K, x1 = 1	1013.72 ± 0.83	1.66 ± 0.017
323.15 K, x1 = 0.1	823.65 ± 0.81	1.029 ± 0.01
323.15 K, x1 = 0.2	859.57 ± 0.81	1.006 ± 0.01
323.15 K, x1 = 0.2999	889.22 ± 0.81	1.025 ± 0.01
323.15 K, x1 = 0.3998	914.18 ± 0.81	1.065 ± 0.011
323.15 K, x1 = 0.4999	935.55 ± 0.81	1.118 ± 0.011
323.15 K, x1 = 0.6001	954.05 ± 0.81	1.18 ± 0.012
323.15 K, x1 = 0.7001	970.21 ± 0.82	1.251 ± 0.013
323.15 K, x1 = 0.8002	984.48 ± 0.82	1.334 ± 0.013
323.15 K, x1 = 0.8997	997.12 ± 0.82	1.425 ± 0.014
323.15 K, x1 = 1	1008.55 ± 0.83	1.523 ± 0.015
